Where a SMILES comes first, the peptide text is derived from it.
What was measured:
[1] = system: pituitaries; assay: In vitro growth hormone release study (incubated rat pituitaries, GH by RIA); type: cell-based; conditions: GH released at I3, I4 (I5) minus P2, mean ± SEM
Experimental: Female rats of the CD-1 strain were housed in a constant temperature room at 24° C. with 14 hours light and 10 hours darkness. The rats were fed Purina brand rat chow ab libitum. All studies were started between 0800 and 1000 hours.
Pituitaries were removed from 20 day old female rats. In each polytetrafluoroethylene beaker (10 ml) was incubated two pituitaries at 36° C. in 1 ml of lactated Ringer's solution in a Dubnoff Shaker (90 cycles/min.). All medium in each beaker was removed each hour (e.g., P1, P2, I3, I4, I5) and then fresh medium was added back to each beaker. Each medium removed was assayed for GH, in duplicate, by a standard radioimmunoassay (RIA).
The growth hormone agonist of Example 1 was not added to the incubation mediums employed during the first hour of the incubation period (P1) or to the incubation mediums employed during the second hour of the incubation period (P2). The growth hormone agonist of Example 1 was dissolved in dimethylsulfoxide (DMSO; 10:1, agonist:DMSO), added to each incubation medium employed during the third hour of the incubation period (I3), to each medium employed during the fourth hour of the incubation period (I4), and, when performed, to each medium employed during the fifth hour of the incubation period (I5). The release of growth hormone was recorded as ΔGH and calculated by subtracting the amount of GH released at P2 from that released at I3, I4, and, when performed, I5. The agonist activity was determined from the release at I3, I4, and, when performed, I5. The mean of the ΔGH values obtained from the three beakers per dosage level measured at I3, I4, and, when performed, I5 are set forth in Table VI.

[2] = system: Female rats of The CD-1 strain; assay: In vivo growth hormone release study (subcutaneous injection, serum GH by RIA); set-up: species or system rat; conditions: serum GH about 15 minutes after injection, 21 day old female rats, mean ± SEM
Experimental: Female rats of The CD-1 strain were housed in a constant temperature room at 24° C. with 14 hours light and 10 hours darkness. The rats were fed Purina brand rat chow ab libitum. All studies were started between 0800 and 1000 hours. Each female rat (21 days old; eight rats per dosage level shown in Table XXVI) was injected subcutaneously with a desired dosage of the peptide of Example 6. Approximately 15 minutes after injection, the rat was guillotined. A blood sample was collected from the guillotined rat. The blood sample was centrifuged and a serum sample was collected therefrom. Each serum sample was assayed for GH, in duplicate, by a standard radioimmunoassay (RIA).

[3] = dosage 10 ng/ml incubation medium
[4] = dosage 100 ng/ml incubation medium
[5] = dosage 1,000 ng/ml incubation medium
[6] = dosage 10,000 ng/ml incubation medium
[7] = dosage 30 ng/ml incubation medium
[8] = dosage 1.0 μg/ml serum (so in the source)
[9] = dosage 3.0 μg/ml serum (so in the source)
[10] = dosage 10.0 μg/ml serum (so in the source)
[11] = dosage 1 ng/ml incubation medium
[12] = dosage 3 ng/ml incubation medium
[13] = dosage 300 ng/ml incubation medium
[14] = dosage 3,000 ng/ml incubation medium
[15] = dosage 30,000 ng/ml incubation medium

C[C@H](NC(=O)[C@@H](Cc1c[nH]c2ccccc12)NC(=O)[C@@H](N)Cc1ccc(O)cc1)C(=O)N[C@@H](Cc1c[nH]c2ccccc12)C(=O)N[C@H](Cc1ccccc1)C(=O)N[C@H](C(N)=O)[C@@H](C)O [H2 -Tyr-D-Trp-Ala-Trp-D-Phe-Thr-NH2] (HELM PEPTIDE1{Y.[dW].A.W.[dF].T.[am]}$$$$V2.0)
ΔGH [1, 3]: 94 ± 69 ng/ml incubation medium
ΔGH [1, 4]: 650 ± 320 ng/ml incubation medium
ΔGH [1, 5]: 2,167 ± 591 ng/ml incubation medium
ΔGH [1, 6]: 2,957 ± 834 ng/ml incubation medium

NC(=O)CC[C@H](NC(=O)[C@@H](Cc1ccccc1)NC(=O)[C@H](Cc1c[nH]c2ccccc12)NC(=O)CNC(=O)[C@@H](Cc1c[nH]c2ccccc12)NC(=O)[C@@H](N)Cc1ccc(O)cc1)C(N)=O [H2 -Tyr-D-Trp-Gly-Trp-D-Phe-Gln-NH2] (HELM PEPTIDE1{Y.[dW].G.W.[dF].Q.[am]}$$$$V2.0)
ΔGH [1, 7]: 103 ± 248 ng/ml incubation medium
ΔGH [1, 4]: 167 ng/ml incubation medium
ΔGH [1, 5]: 1,092 ng/ml incubation medium

C[C@H](NC(=O)[C@@H](Cc1c[nH]c2ccccc12)NC(=O)[C@@H](N)Cc1c[nH]cn1)C(=O)N[C@@H](Cc1c[nH]c2ccccc12)C(=O)N[C@H](Cc1ccccc1)C(=O)N[C@@H](CCC(N)=O)C(N)=O [H2 -His-D-Trp-Ala-Trp-D-Phe-Gln-NH2] (HELM PEPTIDE1{H.[dW].A.W.[dF].Q.[am]}$$$$V2.0)
ΔGH [2, 8]: 1.4 ± 0.9 ng/ml subcutaneous
ΔGH [2, 9]: 3.8 ± 2.1 ng/ml subcutaneous
ΔGH [2, 10]: 32.1 ± 11.4 ng/ml subcutaneous
ΔGH [1, 11]: 5 ± 136 ng/ml incubation medium
ΔGH [1, 12]: 140 ± 168 ng/ml incubation medium
ΔGH [1, 3]: 275 ± 66 ng/ml incubation medium

H2 -His-D-Trp-Ala-Trp-D-Phe-Lys-NHCH2 CH3
ΔGH ([2]; dosage 0.3 μg/ml serum (so in the source)): 13.0 ± 5 ng/ml subcutaneous
ΔGH [2, 10]: 119 ± 12 ng/ml subcutaneous
ΔGH [1, 11]: 726 ± 115 ng/ml incubation medium
ΔGH [1, 3]: 1,688 ± 300 ng/ml incubation medium

C[C@H](NC(=O)[C@@H](Cc1c[nH]c2ccccc12)NC(=O)[C@@H](N)Cc1c[nH]cn1)C(=O)N[C@@H](Cc1c[nH]c2ccccc12)C(=O)N[C@H](Cc1ccccc1)C(=O)N[C@@H](CCCNC(=N)N)C(N)=O [H2 -His-D-Trp-Ala-Trp-D-Phe-Arg-NH2] (HELM PEPTIDE1{H.[dW].A.W.[dF].R.[am]}$$$$V2.0)
ΔGH [2, 8]: 9.2 ± 3.4 ng/ml subcutaneous
ΔGH [2, 9]: 32.2 ± 5.5 ng/ml subcutaneous
ΔGH [2, 10]: 87.5 ± 31 ng/ml subcutaneous
ΔGH ([2]; dosage 30.0 μg/ml serum (so in the source)): 31.1 ± 3.4 ng/ml subcutaneous
ΔGH [1, 11]: 805 ± 152 ng/ml incubation medium
ΔGH [1, 12]: 997 ± 249 ng/ml incubation medium
ΔGH [1, 3]: 2,064 ± 346 ng/ml incubation medium

C[C@H](NC(=O)[C@@H](Cc1c[nH]c2ccccc12)NC(=O)[C@@H](N)Cc1c[nH]cn1)C(=O)N[C@@H](Cc1c[nH]c2ccccc12)C(=O)N[C@H](Cc1ccccc1)C(=O)N[C@@H](CCCN)C(N)=O [H2 -His-D-Trp-Ala-Trp-D-Phe-Orn-NH2] (HELM PEPTIDE1{H.[dW].A.W.[dF].[Orn].[am]}$$$$V2.0)
ΔGH [1, 11]: -295 ± 93 ng/ml incubation medium
ΔGH [1, 3]: 356 ± 92 ng/ml incubation medium

C[C@H](NC(=O)[C@@H](Cc1c[nH]c2ccccc12)NC(=O)[C@@H](N)Cc1ccc(O)cc1)C(=O)N[C@@H](Cc1c[nH]c2ccccc12)C(=O)N[C@H](Cc1ccccc1)C(=O)N[C@@H](Cc1ccccc1)C(N)=O [H2 -Tyr-D-Trp-Ala-Trp-D-Phe-Phe-NH2] (HELM PEPTIDE1{Y.[dW].A.W.[dF].F.[am]}$$$$V2.0)
ΔGH [1, 7]: 10 ± 57 ng/ml incubation medium
ΔGH [1, 13]: 330 ng/ml incubation medium
ΔGH [1, 14]: 710 ng/ml incubation medium
ΔGH [1, 15]: 1,484 ± 135 ng/ml incubation medium

C[C@H](NC(=O)[C@@H](Cc1c[nH]c2ccccc12)NC(=O)[C@@H](N)Cc1ccc(O)cc1)C(=O)N[C@@H](Cc1c[nH]c2ccccc12)C(=O)N[C@H](Cc1ccccc1)C(=O)N[C@@H](CCC(N)=O)C(N)=O [H2 -Tyr-D-Trp-Ala-Trp-D-Phe-Gln-NH2] (HELM PEPTIDE1{Y.[dW].A.W.[dF].Q.[am]}$$$$V2.0)
ΔGH [1, 3]: 240 ng/ml incubation medium
ΔGH [1, 4]: 2,000 ± 523 ng/ml incubation medium
ΔGH [1, 5]: 4,235 ± 785 ng/ml incubation medium
ΔGH [1, 6]: 4,141 ± 576 ng/ml incubation medium

C[C@H](NC(=O)[C@@H](Cc1c[nH]c2ccccc12)NC(=O)[C@@H](N)Cc1ccc(O)cc1)C(=O)N[C@@H](Cc1c[nH]c2ccccc12)C(=O)N[C@H](Cc1ccccc1)C(=O)N[C@@H](CCC(=O)O)C(N)=O [H2 -Tyr-D-Trp-Ala-Trp-D-Phe-Glu-NH2] (HELM PEPTIDE1{Y.[dW].A.W.[dF].E.[am]}$$$$V2.0)
ΔGH [1, 7]: 224 ng/ml incubation medium
ΔGH [1, 13]: 472 ± 104 ng/ml incubation medium
ΔGH [1, 14]: 1,404 ± 179 ng/ml incubation medium
ΔGH [1, 15]: 1,909 ± 270 ng/ml incubation medium

H2 -Tyr-D-Trp-Ala-Trp-D-Phe-Lys-NH2
ΔGH [1, 7]: 1,346 ± 328 ng/ml incubation medium
ΔGH [1, 13]: 2,160 ± 166 ng/ml incubation medium
ΔGH [1, 14]: 1,630 ± 135 ng/ml incubation medium
ΔGH [1, 15]: 1,318 ± 247 ng/ml incubation medium

CSCC[C@H](NC(=O)[C@@H](Cc1ccccc1)NC(=O)[C@H](Cc1c[nH]c2ccccc12)NC(=O)[C@H](C)NC(=O)[C@@H](Cc1c[nH]c2ccccc12)NC(=O)[C@@H](N)Cc1ccc(O)cc1)C(N)=O [H2 -Tyr-D-Trp-Ala-Trp-D-Phe-Met-NH2] (HELM PEPTIDE1{Y.[dW].A.W.[dF].M.[am]}$$$$V2.0)
ΔGH [1, 7]: 456 ± 151 ng/ml incubation medium
ΔGH [1, 13]: 1,260 ± 245 ng/ml incubation medium
ΔGH [1, 5]: 1,832 ± 441 ng/ml incubation medium

C[C@H](NC(=O)[C@@H](Cc1c[nH]c2ccccc12)NC(=O)[C@@H](N)Cc1ccc(O)cc1)C(=O)N[C@@H](Cc1c[nH]c2ccccc12)C(=O)N[C@H](Cc1ccccc1)C(=O)N[C@@H](CCC(N)=O)C(=O)O [H2 -Tyr-D-Trp-Ala-Trp-D-Phe-Gln-OH] (HELM PEPTIDE1{Y.[dW].A.W.[dF].Q}$$$$V2.0)
ΔGH [1, 4]: 753 ± 559 ng/ml incubation medium
ΔGH [1, 5]: 2,759 ± 515 ng/ml incubation medium
ΔGH [1, 6]: 3,994 ± 1,214 ng/ml incubation medium

C[C@H](NC(=O)[C@@H](Cc1c[nH]c2ccccc12)NC(=O)[C@@H](N)Cc1ccc(O)cc1)C(=O)N[C@@H](Cc1c[nH]c2ccccc12)C(=O)N[C@H](Cc1ccccc1)C(=O)N[C@@H](CC(N)=O)C(N)=O [H2 -Tyr-D-Trp-Ala-Trp-D-Phe-Asn-NH2] (HELM PEPTIDE1{Y.[dW].A.W.[dF].N.[am]}$$$$V2.0)
ΔGH [1, 7]: 244 ng/ml incubation medium
ΔGH [1, 4]: 528 ± 184 ng/ml incubation medium
ΔGH [1, 5]: 1,670 ± 126 ng/ml incubation medium

NCCCC[C@H](NC(=O)[C@@H](Cc1ccccc1)NC(=O)[C@H](Cc1c[nH]c2ccccc12)NC(=O)[C@H](CO)NC(=O)[C@@H](Cc1c[nH]c2ccccc12)NC(=O)[C@@H](N)Cc1c[nH]cn1)C(N)=O [H2 -His-D-Trp-Ser-Trp-D-Phe-Lys-NH2] (HELM PEPTIDE1{H.[dW].S.W.[dF].K.[am]}$$$$V2.0)
ΔGH [1, 3]: 161 ± 157 ng/ml incubation medium
ΔGH [1, 7]: 705 ± 149 ng/ml incubation medium

CC(C)[C@H](NC(=O)[C@@H](Cc1c[nH]c2ccccc12)NC(=O)[C@@H](N)Cc1c[nH]cn1)C(=O)N[C@@H](Cc1c[nH]c2ccccc12)C(=O)N[C@H](Cc1ccccc1)C(=O)N[C@@H](CCCCN)C(N)=O [H2 -His-D-Trp-Val-Trp-D-Phe-Lys-NH2] (HELM PEPTIDE1{H.[dW].V.W.[dF].K.[am]}$$$$V2.0)
ΔGH [1, 7]: -118 ± 65 ng/ml incubation medium

— patent US4411890A, “Synthetic peptides having pituitary growth hormone releasing activity” (Beckman Instruments, Inc., priority 1981, dated 1983)
